Laboratory results taken from publication PMC12198407, “Preclinical and first-in-human of purinostat mesylate, a novel selective HDAC I/IIb inhibitor, in relapsed/refractory multiple myeloma and lymphoma” (Signal Transduction and Targeted Therapy, 2025).
“And” between values parts separate entries of the source, which are not always exact repeats. Equal values may be shown once. “Also recorded” adds a separate entry of the source. Read-outs that look alike come from different tables or passages of the source.

How the values were obtained:
[1] = biological target: T1, CYP1A2 (Homo sapiens, UniProt P05177); test: CYP inhibition, human liver microsomes; type: in vitro ADME
T1 construct: human liver microsomal cytochrome P450 isoenzymes; from tissue; host or cells: human liver microsomes
T1 sequence (P05177 whole entry): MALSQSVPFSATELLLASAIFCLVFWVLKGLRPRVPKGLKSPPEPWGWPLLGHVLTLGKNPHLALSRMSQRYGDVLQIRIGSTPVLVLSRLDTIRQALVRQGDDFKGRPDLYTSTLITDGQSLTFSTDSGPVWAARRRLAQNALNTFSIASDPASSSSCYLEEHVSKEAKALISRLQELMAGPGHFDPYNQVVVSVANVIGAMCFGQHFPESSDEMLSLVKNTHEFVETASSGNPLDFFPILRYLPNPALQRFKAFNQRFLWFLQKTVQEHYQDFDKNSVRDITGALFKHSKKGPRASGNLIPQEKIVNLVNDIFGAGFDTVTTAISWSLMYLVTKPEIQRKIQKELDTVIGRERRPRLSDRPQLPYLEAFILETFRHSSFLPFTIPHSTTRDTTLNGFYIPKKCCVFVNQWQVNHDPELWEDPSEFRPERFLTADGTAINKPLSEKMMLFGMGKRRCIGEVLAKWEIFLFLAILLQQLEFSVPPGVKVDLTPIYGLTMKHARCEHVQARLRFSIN

[2] = biological target: HDAC8 (Homo sapiens, UniProt Q9BY41); test: HDAC enzyme activity in vitro; type: biochemical
Sequence of HDAC8 (Q9BY41 whole entry): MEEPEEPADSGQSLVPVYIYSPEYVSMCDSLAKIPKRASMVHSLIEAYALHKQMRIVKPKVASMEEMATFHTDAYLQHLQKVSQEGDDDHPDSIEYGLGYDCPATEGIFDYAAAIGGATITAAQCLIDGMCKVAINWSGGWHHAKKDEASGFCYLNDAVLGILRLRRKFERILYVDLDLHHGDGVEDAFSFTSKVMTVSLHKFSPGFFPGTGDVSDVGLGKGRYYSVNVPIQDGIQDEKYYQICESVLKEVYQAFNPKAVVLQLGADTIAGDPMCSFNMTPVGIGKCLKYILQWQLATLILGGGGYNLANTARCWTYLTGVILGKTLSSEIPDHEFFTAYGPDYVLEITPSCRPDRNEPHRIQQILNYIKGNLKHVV

[3] = Plasma protein binding, equilibrium dialysis; type: in vitro ADME; conditions: read-out: plasma protein binding rate (converted)
Experimental: The plasma protein binding rate of Purinostat Mesylate was measured using equilibrium dialysis in Sprague-Dawley rats, Beagle dogs, crab-eating monkeys, and human plasma.

[4] = tested on: serum cytokines and T cells in PB; test: Phase I trial, serum cytokines and PB T cells in responders; type: in vivo, human; conditions: after 1 week
[5] = Body weight of MM1S xenograft, DEL and r/r DLBCL PDX mice; type: in vivo; conditions: treatment groups of the mouse models
Experimental: Mice received subcutaneous inoculation with 0.5 × 10^7 MM1S or RPMI-8226 cells, to establish xenograft models. […] When tumors reached 150–250 mm^3, mice were treated with various compounds. PM and panobinostat were administered intravenously three times a week at 5 mg/kg in combination therapy. […] Tumor volume (tumor volume (mm^3) = π/6 × length × width^2) and body weights were measured every two days.
Mice were weighed every two days. All data are represented as mean ± SEM.

[6] = human, in vivo
[7] = Plasma level in wild-type mice; type: in vivo; conditions: single i.v. 5 mg/kg, listed as Purinostat Mesylate
Experimental: The mean residence times (MRT) were 6.00 ± 1.00 h, 24.8 ± 1.03 h, and 23.4 ± 3.59 h, respectively. […] However, in Ighmyc mice, the plasma drug concentration after the same duration was 7.11 ± 3.15 ng/mL. […] The pharmacokinetic characteristics support the notion that spaced dosing of the drug can still maintain favorable pharmacodynamic outcomes.

[8] = tested on: r/r MM and r/r lymphoma; test: Phase I trial NCT05526313, efficacy assessment; type: in vivo, human
Experimental: This open-label, non-randomized, first-in-human phase I dose-escalation two-center trial enrolled adult patients with lymphoma or MM who were refractory or relapsed after ≥1 prior regimen (NCT05526313). All patients provided written informed consent, and the study was conducted in accordance with the principles of the Declaration of Helsinki. PM was administered by 30-min intravenous infusion in a standard 3 + 3 dose escalation design, starting from 1.2, 2.4, 4.0, 6.0, 8.4, 11.2, up to 15 mg/m^2. This trial was conducted in three sequential stages as follows: the first stage as a single dose (day 1), the second stage as multiple doses (day 8, 11, and 15), and the third stage as extended doses (day 1, 4, 8, 11 in 21-day cycles). The decision to proceed to the third stage is based on the patient’s continued benefit from the previous two stages. Patients continued to receive PM until unacceptable toxicity or disease progression. Between August 2020 and August 2022, 11 r/r MM and 18 r/r lymphoma patients were enrolled. The cutoff date for the assessment of safety and efficacy was July 7, 2023. The incidence and severity of adverse events were assessed according to the National Cancer Institute Common Terminology Criteria for Adverse Events (CTCAE 5.0). The efficacy of PM in patients with r/r MM was evaluated according to the standards of the Chinese Multiple Myeloma Diagnosis and Treatment Guidelines (2017 Revised) and the 2016 International Myeloma Working Group (IMWG). Minimal response (MR) (only for the evaluation of r/r MM): serum M protein decreased by 25–49% and 24 h light chain decreased by 50–89%. If soft tissue plasmacytoma exists at baseline, the sum of the product of perpendicular diameters (SPD) of measurable lesions is required to be reduced by ≥50%.[56],[57] The number and size of osteolytic lesions have not increased (compression fractures are allowed). […] Detailed methods for pharmacodynamic studies, safety and tolerability assessments (including the definition of DLT and maximum tolerated dose), and efficacy assessment are provided in Supplementary Methods.
Disease response of patients was measured according to the Chinese Multiple Myeloma Diagnosis and Treatment Guidelines (2017 Revised) and the 2016 International Myeloma Working Group (IMWG) for multiple myeloma or the International Working Group consensus response evaluation criteria in lymphoma (RECIL 2017). Patients need to be evaluated for efficacy after completing the cycle 1 of PM treatment (single and multiple dosing phases, day 25) and every 2 treatment cycles during the extended dosing phase. For r/r multiple myeloma, the efficacy was evaluated by quantification of M protein immunofixation electrophoresis of serum and urine. For r/r lymphoma, if sites with available positron emission tomography (PET) imaging, tumor volume was quantified by PET computed tomography (CT), and if sites where PET was not available, CT or magnetic resonance imaging was used. Objective response rate (ORR)=CR+PR+MR, and disease control rate (DCR)=CR+PR+MR+SD, and calculate their 95% confidence interval using the Clopper-Pearson method. The efficacy assessable population was determined to include all patients who were administered at least one dose of PM and had undergone at least one tumor assessment after the baseline.

[9] = by row: r4 MM, r5 DLBCL, r6 FL, r7 other lymphomas, r8 total

With `CN(Cc1nc2c(N3CCOCC3)nc(-c3ccc(N)cc3)nc2n1C)c1ncc(C(=O)NO)cn1.CS(=O)(=O)O` [PM, 2-(((2-(4-Aminophenyl)-9-methyl-6-(4-morpholinyl)-9H-purine-8-yl)methyl)methylamino)-N-hydroxy-5-pyrimidine-carboxamide Mesylate] the IC50 [1] was > 10000 nM, the IC50 [2] was 3.8 nM and the fraction unbound at 0.2 µM ([3]; Beagle, dog) was 0.169. The fraction unbound at 2 µM ([3]; Beagle, dog) was 0.164, the fraction unbound at 10 µM ([3]; Beagle, dog) was 0.167 and the fraction unbound at 0.2 µM ([3]; Sprague-Dawley, rat) was 0.057. For the same molecule, the fraction unbound at 2 µM ([3]; Sprague-Dawley, rat) was 0.045, the fraction unbound at 10 µM ([3]; Sprague-Dawley, rat) was 0.045 and the fraction unbound at 0.2 µM ([3]; human) was 0.097. The fraction unbound at 2 µM ([3]; human) was 0.1, the fraction unbound at 10 µM ([3]; human) was 0.096 and the fraction unbound at 0.2 µM ([3]; monkey) was 0.216. For the same molecule, the fraction unbound at 2 µM ([3]; monkey) was 0.205, the fraction unbound at 10 µM ([3]; monkey) was 0.21 and the “proportion of CD3+CD4+ T cells in PB” value ([4]; before 4.12%) was 6.49%. For the same molecule, the “proportion of CD3+CD8+ T cells in PB” value ([4]; before 4.30%) was 9.56%, the “proportion of CD3+ T cells in PB” value ([4]; before 8.42%) was 16.05% and the “body weight / side effects” value [5] was “no weight loss or other evident side effects”. The “QT interval prolongation on ECG” value [6] was 10(34.5) n (%), the “cardiac toxic adverse events” value [6] was “no grade 3 or higher events occurring” and the “transient QTc interval prolongation, grade” value [6] was ≤ 2 grade. For the same molecule, the “plasma drug concentration at 24 hours” value [7] was “no drug concentration was detected in the plasma at 24 hours; also recorded: no drug concentration was detectable in plasma after 24 hours; also recorded: undetectable”, the DCR ([8]; DLBCL, n=11) was 72.7% and the “duration of PR” value ([8]; FL patient with multiple extranodal lesions) was “more than 10 cycles”. The DCR ([8]; FL, n=3) was 66.7%, the ORR ([8]; FL, n=3) was 66.7% and the “duration of MR” value ([8]; Patient No.10, 6.0 mg/m²) was “more than 6 months”. For the same molecule, the “M-protein after 2 cycles” value ([8]; Patient No.10, 6.0 mg/m², baseline 26.290 g/L) was 15.998 g/L, the “Best Response CR” value [8, 9] was 6(54.5) n (%) and 6(20.7) n (%) and the “Best Response MR” value [8, 9] was 1(33.3) n (%). For the same molecule, the “Best Response PD” value [8, 9] was 1(33.3) n (%), the “Best Response PR” value [8, 9] was 1(33.3) n (%) and the “Best Response SD” value [8, 9] was 10(34.5) n (%). For the same molecule, the DCR ([8]; other lymphomas, n=4) was 100%, the ORR ([8]; other lymphomas, n=4) was 50.0% and the “duration of CR” value ([8]; r/r DEL DLBCL patient with MYD88 mutation) was “over 18 months”. The “duration of CR” value ([8]; r/r DEL patient No.26) was “more than 1.5 years”, the “Response (%): CR” value ([8]; r/r DLBCL) was 54.5% and the ORR ([8]; r/r DLBCL, n=11) was 63.6%. The “number of complete responses” value ([8]; r/r DLBCL, n=11) was 6, the “number of partial responses” value ([8]; r/r DLBCL, n=11) was 1 and the DCR ([8]; r/r MM, n=11) was 72.7%. For the same molecule, the ORR ([8]; r/r MM, n=11, 1.2–8.4 mg/m^2) was 9.1% and 9.09%, the ORR ([8]; r/r lymphoma, n=18, 4.0–15.0 mg/m^2) was 61.1% and the DCR ([8]; total, n=29) was 75.9%. It also gave an ORR ([8]; total, n=29) of 41.4%.
